In assay [1] the target is T1, PCSK9 (Homo sapiens, UniProt Q8NBP7). The assay is described as follows: Differential scanning calorimetry (DSC) assay, direct binding / thermal stabilization of PCSK9. To be noted: Tm(with compound)−Tm(no compound); 2 μM PCSK9, 300 μM test compound. Here is the method:
Differential scanning calorimetry (DSC) was used as a biophysical method to confirm direct binding to PCSK9. A solution containing 2 μM PCSK9 with or without 300 μM test compound in 25 mM HEPES (pH 7.5)/150 mM NaCl/1 mM CaCl2/3.75% DMSO was transferred to the sample cell of the DSC instrument, while buffer alone was placed in the reference cell. Both cells were heated at a constant rate (200° C./hr) from 20-80° C. while recording the excess heat capacity of the sample cell relative to the reference cell. Each thermogram was analyzed to provide the melting temperature (Tm) of the protein.
The higher the temperature shift generally, the higher the affinity.
Background: Differential scanning calorimetry records heat flow against a reference as temperature is scanned.

In assay [2] the target is T1, PCSK9. The assay is described as follows: Fluorescence polarization competition binding assay (probe: compound of Example 57). To be noted: 2 μM PCSK9, 50 nM compound of Example 57 as probe, overnight incubation; read-out: FP IC. Here is the method:
Relative compound affinities were determined using a competition binding assay with a fluorescence polarization format. Solution (49 μL) containing 2 μM PCSK9 and 50 nM compound of Example 57 in 20 mM HEPES (pH 7.5)/150 mM NaCl/1 mM CaCl2/0.005% P-20 was dispensed to wells of a 384-well black non-binding microplate before the addition of 1 μL of test compound or DMSO. After mixing, the plate was centrifuged and sealed for overnight incubation in the dark. The anisotropy signal was read using a fluorescence polarization protocol on a Perkin-Elmer Envision plate reader. The % inhibition was determined relative to the window defined by the DMSO control wells and wells containing 50 nM probe in the absence of PCSK9.
A general note: Fluorescence polarisation rises when a labelled molecule tumbles more slowly, as on binding a larger partner.

Consider 15 compounds from patent publication US11008313B2, “Substituted 1-methyl-1,2,3,4-tetrahydroisoquinoline molecules as PCSK9 allosteric binders” (Merck Sharp & Dohme Corp., priority 2016, dated 2021).

For orientation: ΔTm means the change in melting temperature against a reference sample.

T1 sequence (Q8NBP7 153-692): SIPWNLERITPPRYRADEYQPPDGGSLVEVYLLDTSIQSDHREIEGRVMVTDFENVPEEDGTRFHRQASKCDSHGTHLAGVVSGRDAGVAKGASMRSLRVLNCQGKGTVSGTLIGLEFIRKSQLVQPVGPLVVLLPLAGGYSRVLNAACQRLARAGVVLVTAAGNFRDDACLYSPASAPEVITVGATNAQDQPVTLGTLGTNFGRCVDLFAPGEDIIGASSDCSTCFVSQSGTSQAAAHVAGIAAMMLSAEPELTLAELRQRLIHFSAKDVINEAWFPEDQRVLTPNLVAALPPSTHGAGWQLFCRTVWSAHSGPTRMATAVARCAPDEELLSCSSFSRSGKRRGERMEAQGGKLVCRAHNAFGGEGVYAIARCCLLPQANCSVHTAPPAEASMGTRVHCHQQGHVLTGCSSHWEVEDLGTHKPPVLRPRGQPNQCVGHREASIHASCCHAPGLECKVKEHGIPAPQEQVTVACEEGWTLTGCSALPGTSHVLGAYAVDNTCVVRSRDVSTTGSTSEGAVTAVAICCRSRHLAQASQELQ

Regarding `COC(=O)C1(c2ccc(-c3ccc(Oc4cc5c(cc4OC)CCN[C@]5(C)CC(=O)Nc4nccs4)cn3)cc2)CC1` [Example 15, methyl (R)-1-(4-(5-((6-methoxy-1-methyl-1-(2-oxo-2-(thiazol-2-ylamino)ethyl)-1,2,3,4-tetrahydroisoquinolin-7-yl)oxy)pyridin-2-yl)phenyl)cyclopropane-1-carboxylate], the ΔTm at 300 µM on PCSK9 [1] worked out at 3.31 °C. Besides, at PCSK9 [2], the IC50 was found to be 3.76 nM.

For `C[C@]1(CC(=O)Nc2nccs2)NCCc2cc(OCC3CCCCO3)c(Oc3ccc(C(=O)Nc4n[nH]c5ncccc45)c(F)c3)cc21` (stereo partly drawn) [Example 74, 2-fluoro-4-(((1R)-1-methyl-1-(2-oxo-2-(thiazol-2-ylamino)ethyl)-6-((tetrahydro-2H-pyran-2-yl)methoxy)-1,2,3,4-tetrahydroisoquinolin-7-yl)oxy)-N-(1H-pyrazolo[3,4-b]pyridin-3-yl)benzamide], the ΔTm at 300 µM on PCSK9 [1] stood at 7.08 °C. Moreover, on PCSK9 [2], the IC50 is 790 nM.

For the compound `COc1ccccc1C(=O)Nc1ccccc1-n1cc(C(=O)NCc2cn(CCOc3cc4c(cc3Oc3ccc(C(=O)O)c(F)c3)[C@@](C)(CC(=O)Nc3nccs3)NCC4)nn2)nc1C` [Example 52, (R)-2-fluoro-4-((6-(2-(4-((1-(2-(2-methoxybenzamido)phenyl)-2-methyl-1H-imidazole-4-carboxamido)methyl)-1H-1,2,3-triazol-1-yl)ethoxy)-1-methyl-1-(2-oxo-2-(thiazol-2-ylamino)ethyl)-1,2,3,4-tetrahydroisoquinolin-7-yl)oxy)benzoic acid], the ΔTm at 300 µM at PCSK9 [1] was determined as 5.58 °C. In addition, the IC50 on PCSK9 [2] was found to be 778 nM.

As for `C[C@]1(CC(=O)Nc2nccs2)NCCc2cc(OCC3CCCCO3)c(Oc3ccc(C(=O)O)c(F)c3)cc21` (single isomer, unassigned) [Example 70, 2-fluoro-4-(((1R)-1-methyl-1-(2-oxo-2-(thiazol-2-ylamino)ethyl)-6-(((R or S)-tetrahydro-2H-pyran-2-yl)methoxy)-1,2,3,4-tetrahydroisoquinolin-7-yl)oxy)benzoic acid], the ΔTm at 300 µM at PCSK9 [1] amounted to 7.98 °C. Besides, the IC50 at PCSK9 [2] was determined as 551 nM.

Regarding `COc1cccc(NC(=O)C[C@@]2(C)NCCc3cc(OCC4CCCCO4)c(Oc4ccc(-c5ccc(C(=O)O)cc5)c(F)c4)cc32)n1` (stereo partly drawn) [Example 90, 2′-fluoro-4′-(((1R)-1-(2-((6-methoxypyridin-2-yl)amino)-2-oxoethyl)-1-methyl-6-((tetrahydro-2H-pyran-2-yl)methoxy)-1,2,3,4-tetrahydroisoquinolin-7-yl)oxy)-[1,1′-biphenyl]-4-carboxylic acid], the ΔTm at 300 µM at PCSK9 [1] was found to be 8.59 °C. For the same compound, the IC50 at PCSK9 [2] was determined as 109 nM.

For the compound `COc1cc2c(cc1Oc1cccc(F)c1)[C@@](C)(CC(=O)Nc1nccs1)NCC2` [Example 9, (R)-2-(7-(3-fluorophenoxy)-6-methoxy-1-methyl-1,2,3,4-tetrahydroisoquinolin-1-yl)-N-(thiazol-2-yl)acetamide], the ΔTm at 300 µM at PCSK9 [1] came to 5.92 °C. Also, the IC50 on PCSK9 [2] came out at 847 nM.

For the compound `Cn1nccc1NC(=O)c1ccc(Oc2cc3c(cc2OCC2CCCCO2)CCN[C@]3(C)CC(=O)Nc2nccs2)cc1F` (single isomer, unassigned) [Example 77, 2-fluoro-4-(((R)-1-methyl-1-(2-oxo-2-(thiazol-2-ylamino)ethyl)-6-(((R or S)-tetrahydro-2H-pyran-2-yl)methoxy)-1,2,3,4-tetrahydroisoquinolin-7-yl)oxy)-N-(1-methyl-1H-pyrazol-5-yl)benzamide], the ΔTm at 300 µM at PCSK9 [1] came to 6.67 °C. Besides, on PCSK9 [2], the IC50 was 591 nM.

Consider `C[C@]1(CC(=O)Nc2nccs2)NCCc2cc(OCc3ccccn3)c(Oc3cccc(F)c3)cc21` [Example 83, (R)-2-(7-(3-fluorophenoxy)-1-methyl-6-(pyridin-2-ylmethoxy)-1,2,3,4-tetrahydroisoquinolin-1-yl)-N-(thiazol-2-yl)acetamide], for which the thermal shift (ΔTm) at 300 µM at PCSK9 [1] stood at 5.2 °C. Further, the IC50 at PCSK9 [2] turned out to be 852 nM.

On to `C[C@]1(CC(=O)Nc2nccs2)NCCc2cc(OCCn3cc(C(O)C(N)C(=O)O)nn3)c(Oc3ccc(C(=O)O)c(F)c3)cc21` (stereo partly drawn) [Example 53, 4-(((1R)-6-(2-(4-(2-amino-2-carboxy-1-hydroxyethyl)-1H-1,2,3-triazol-1-yl)ethoxy)-1-methyl-1-(2-oxo-2-(thiazol-2-ylamino)ethyl)-1,2,3,4-tetrahydroisoquinolin-7-yl)oxy)-2-fluorobenzoic acid], for which the ΔTm at 300 µM at PCSK9 [1] came out at 6.96 °C. In addition, the IC50 on PCSK9 [2] turned out to be 823 nM.

Consider `COC(=O)c1ccc(Oc2cc3c(cc2OCc2ncccn2)CCN[C@]3(C)CC(=O)Nc2nccs2)cc1F` [Example 71, methyl (R)-2-fluoro-4-((1-methyl-1-(2-oxo-2-(thiazol-2-ylamino)ethyl)-6-(pyrimidin-2-ylmethoxy)-1,2,3,4-tetrahydroisoquinolin-7-yl)oxy)benzoate], for which the ΔTm at 300 µM at PCSK9 [1] amounted to 6.36 °C. On PCSK9 [2], the IC50 was 645 nM.

Consider `C[C@]1(CC(=O)Nc2nccs2)NCCc2cc(OCC3CCCCO3)c(Oc3ccc(-c4ccc(C(=O)O)cc4)c(F)c3)cc21` (stereo partly drawn) [Example 23, 2′-fluoro-4′-(((1R)-1-methyl-1-(2-oxo-2-(thiazol-2-ylamino)ethyl)-6-((tetrahydro-2H-pyran-2-yl)methoxy)-1,2,3,4-tetrahydroisoquinolin-7-yl)oxy)-[1,1′-biphenyl]-4-carboxylic acid], for which, on PCSK9 [1], the ΔTm at 300 µM was 8.71 °C. The IC50 on PCSK9 [2] came out at 228 nM.

Turning to `C[C@]1(CC(=O)Nc2nccs2)NCCc2cc(OCC(=O)O)c(Oc3ccc(C(=O)O)c(F)c3)cc21` [Example 64, (R)-4-((6-(carboxymethoxy)-1-methyl-1-(2-oxo-2-(thiazol-2-ylamino)ethyl)-1,2,3,4-tetrahydroisoquinolin-7-yl)oxy)-2-fluorobenzoic acid], the ΔTm at 300 µM at PCSK9 [1] came out at 7.83 °C. Further, the IC50 at PCSK9 [2] turned out to be 294 nM.

With `C[C@]1(CC(=O)Nc2cccnn2)NCCc2cc(OCC3CCCCO3)c(Oc3ccc(Br)c(F)c3)cc21` (stereo partly drawn) [Example 88, 2-((1R)-7-(4-bromo-3-fluorophenoxy)-1-methyl-6-((tetrahydro-2H-pyran-2-yl)methoxy)-1,2,3,4-tetrahydroisoquinolin-1-yl)-N-(pyridazin-3-yl)acetamide], the ΔTm at 300 µM on PCSK9 [1] is 5.51 °C. For the same compound, the IC50 on PCSK9 [2] amounted to 1.6 nM.

Regarding `C[C@]1(CC(=O)Nc2nccs2)NCCc2cc(OCCn3cc(CN4CCNC4=O)nn3)c(Oc3ccc(C(=O)O)c(F)c3)cc21` [Example 42, (R)-2-fluoro-4-((1-methyl-1-(2-oxo-2-(thiazol-2-ylamino)ethyl)-6-(2-(4-((2-oxoimidazolidin-1-yl)methyl)-1H-1,2,3-triazol-1-yl)ethoxy)-1,2,3,4-tetrahydroisoquinolin-7-yl)oxy)benzoic acid], the thermal shift (ΔTm) at 300 µM on PCSK9 [1] stood at 5.97 °C. Also, the IC50 at PCSK9 [2] worked out at 389 nM.

For `Cc1ccc(-c2cn(CCOc3cc4c(cc3Oc3ccc(C(=O)O)c(F)c3)[C@@](C)(CC(=O)Nc3nccs3)NCC4)nn2)cn1` [Example 45, (R)-2-fluoro-4-((1-methyl-6-(2-(4-(6-methylpyridin-3-yl)-1H-1,2,3-triazol-1-yl)ethoxy)-1-(2-oxo-2-(thiazol-2-ylamino)ethyl)-1,2,3,4-tetrahydroisoquinolin-7-yl)oxy)benzoic acid], the ΔTm at 300 µM at PCSK9 [1] came to 6.96 °C. The IC50 on PCSK9 [2] turned out to be 530 nM.
